The subject of series [1] is Colo205 cells. The series is described as follows: In vitro proliferation inhibition test on Colo205 tumor cells (CellTiter-Glo). The note with it: Homo sapiens, COLO 205, 72 h; Colo205 cell proliferation, 3 days of culture, CTG. The format is cell-based. How it is done: The purpose of this experiment is to test the inhibitory activity of the compounds of the present disclosure on the proliferation of Colo205 cells (CCL-222, ATCC) in vitro. The cells were treated in vitro with different concentrations of the compounds. After 3 days of culture, the cell proliferation was tested with CTG (CellTiter-Glo® Luminescent Cell Viability Assay, Promega, Catalog No. G7573) reagent, and the in vitro activity of the compounds was evaluated according to the ICso value.
In the following, the in vitro proliferation inhibition test method of Colo205 cells is taken as an example to illustrate the method for testing the in vitro proliferation inhibitory activity of the compounds of the present disclosure on tumor cells. This method is also applicable to, but not limited to, the in vitro proliferation inhibitory activity test on other tumor cells.
Colo205 cells were digested, centrifuged and then resuspended. The single cell suspension was mixed well, and the density of viable cells was adjusted to 5.0×10^4 cells/ml with cell culture medium (RPMI1640+2% FBS), and 95 μL/well was added to a 96-well cell culture plate. Only 100 μL medium was added to the peripheral wells of the 96-well plate. The culture plate was incubated in an incubator for 24 hours (37° C., 5% CO2).
The compound was dissolved in DMSO (dimethyl sulfoxide, Shanghai Titan Scientific Co., Ltd.) and prepared as a stock solution with an initial concentration of 20 mM. The initial concentration of the small molecule compound was 2 mM, and then 4-fold diluted into 9 points, and the 10th point was DMSO. Another 96-well plate was taken, and 90 μL of cell culture medium (RPMI1640+2% FBS) was added to each well. Then 10 μL of different concentrations of the test sample was added to each well. The mixture was mixed well, and then 5μL of different concentrations of the test sample was added to the cell culture plate. Each sample has two duplicate holes. The culture plate was incubated in the incubator for 3 days (37° C., 5% CO2). The 96-well cell culture plate was taken out. 50 μL solution of CTG was added to each well, and the plate was incubated for 10 minutes at room temperature. In a microplate reader (BMG labtech, PHERAstar FS), chemiluminescence was measured with the microplate reader.
(§1) Microsoft Excel, Graphpad Prism 5 was used to process and analyze the data.
For orientation: Cellular ATP, detected with luciferase, serves as a proxy for viable cell number.

Series [2] concerns the target T1, ERK1 (Homo sapiens, UniProt P27361).
T1 construct: purchased R&D 1879-KS-010
In words: ERK1 enzyme activity test (ADP-Glo Kinase Assay). Type of series: biochemical. Particulars: ADP-Glo chemiluminescence. As for the experimental part:
(§2) The purpose of this experiment is to detect the inhibitory ability of the compounds of the present disclosure on the ERK1 enzyme activity and to evaluate the in vitro activity of the compounds based on the IC50. The ADP-Glo™ Kinase Assay Kit was used in this experiment. The substrate was phosphorylated under the action of the enzyme and ADP was produced at the same time. The ADP-Glo reagent was added to remove the unreacted ATP in the reaction system, and the ADP produced by the reaction was detected with kinase detection reagent. In the presence of the compound, the inhibition rate of the compound was calculated by measuring the signal value.
Preparation of Enzyme and substrate: ERK1 (1879-KS-010, R&D) and substrate (AS-61777, anaspec) were prepared to 0.75 ng/p1 and 100 μM respectively in a buffer, and then the enzyme solution and the substrate solution were prepared into a mixed solution at a volume ratio of 2:1 for later use. ATP was diluted to 300 μM with buffer. The compound was dissolved in DMSO (dimethyl sulfoxide, Shanghai Titan Scientific Co., Ltd.) to prepare a stock solution with an initial concentration of 20 mM, and then Bravo was used to prepare the compound. Finally, 3 μL of a mixed solution of enzyme and substrate, and 1 μL of different concentrations of the compound (the initial concentration was 50 μM, 4-fold dilution) were added to each well of the 384-well plate, and the plate was incubated at 30° C. for 10 minutes, and finally 1 μL of 300 μM ATP solution was added to each well, and the plate was incubated at 30° C. for 2 hours. Then 5 μL of ADP-Glo was added, and the plate was incubated at 30° C. for 40 minutes. Then 10 μL of kinase detection buffer was added, and the plate was incubated at 30° C. for 40 minutes. The 384-well plate was taken out and placed in a microplate reader (BMG labtech, PHERAstar FS), and the chemiluminescence was measured by a microplate reader.
as §1
A general note: ADP-Glo first removes unused ATP, then detects ADP through luciferase.

The target in series [3] is T2, ERK2 (Homo sapiens, UniProt P28482).
T2 construct: purchased R&D 1879-KS-010
In words: ERK2 enzyme activity test (ADP-Glo Kinase Assay). Type of series: biochemical. The note with it: ADP-Glo chemiluminescence. As for the experimental part: as §2, with “the ERK2” for “the ERK1”, “enzyme activity,” for “enzyme activity”
Preparation of enzyme and substrate: ERK2 (1879-KS-010, R&D) and substrate (custom peptide, Gill Biochemical) were prepared to 0.75 ng/ml and 1500 μM in a buffer (40 mM Tris, 20 mM MgCl2, 0.1 mg/ml BSA, 50 μM DTT), and then the enzyme solution and the substrate solution were prepared into a mixed solution at a volume ratio of 2:1 for later use. ATP was diluted to 500 μM with buffer. The compound was dissolved in DMSO (dimethyl sulfoxide, Shanghai Titan Scientific Co., Ltd.) to prepare a stock solution with an initial concentration of 20 mM, and then Bravo was used to prepare the compound. Finally, 3 μL of a mixed solution of enzyme and substrate, and 1 μL substrate of different concentrations of the compound (the initial concentration is 50 μM, 4-fold dilution) were added to each well of the 384-well plate, and the plate was incubated at 30° C. for 10 minutes, and finally 1 μL 500 μM ATP solution was added to each well, and the plate was incubated at 30° C. for 2 hours. Then 5 μL of ADP-Glo was added, and the plate was incubated at 30° C. for 40 minutes. Then 10 μL of kinase detection buffer was added, and the plate was incubated at 30° C. for 40 minutes. The 384-well plate was taken out and placed in a microplate reader (BMG labtech, PHERAstar FS), and the chemiluminescence was measured by a microplate reader.
as §1

The nature of series [4]: Pharmacokinetics assay in mice. Type of series: in vivo. The note with it: female, mouse, po, C57 mice, intragastric, 2 mg/kg, plasma. How it is done: Mice were used as test animals. The drug concentration in plasma at different time points was determined by LC/MS/MS method after administration of the compounds 1-P2, 2-P2, 4-P2, 6-P2, 9-P2, 10-P2 and 11-P2. The pharmacokinetic behavior of the compounds of the present disclosure was studied and evaluated in mice.
Sixty-three C57 mice (female, equally divided into seven groups) were purchased from Shanghai Jiesijie Laboratory Animal Co., LTD. (Certificate No.: SCXK(Shanghai)2013-0006).
A certain amount of the test compound was weighed, dissolved in 5% of DMSO by volume and 5% of tween 80, followed by the additon of 90% of normal saline to prepare a 0.1 mg/mL colorless, clear and transparent solution.
After an overnight fast, C57 mice were intragastrically administered the test compound at an administration dose of 2 mg/kg and an administration volume of 0.2 ml/10 g.
The mice were intragastrically administered the test compounds. 0.1 ml of blood was taken before the administration and at 0.25, 0.5, 1.0, 2.0, 4.0, 6.0, 8.0, 11.0 and 24.0 hours after the administration. The samples were stored in heparinized tubes, and centrifuged for 10 minutes at 3500 rpm to separate the blood plasma. The plasma samples were stored at −20° C.
The content of the test compound in the plasma of mice after intragastrical administration of the test compound at different concentrations was determined: 25 μL of […] plasma at each time point after the administration was taken, followed by the addition of 50 μL of the internal standard camptothecin solution (100ng/mL) and 200 μL of acetonitrile. The resulting solution was vortex-mixed for 5 minutes, and centrifuged for 10 minutes (4000 rpm). 4 μL of the supernatant was taken from the plasma samples for LC/MS/MS analysis.

Structures are written as SMILES.

This is an account of results in US20220204512A1, “SUBSTITUTED FUSED BICYCLIC DERIVATIVE, PREPARATION METHOD THEREFOR, AND APPLICATION THEREOF IN MEDICINES” (Jiangsu Hengrui Medicine Co., Ltd., priority 2019, published 2022).

As a reminder, the IC50 is the midpoint of a concentration-inhibition curve. Low values mean inhibition by little substance, high ones a need for much substance. Broadly, the AUC is the area under the concentration-time curve, a measure of exposure. For orientation: MRT means a mean duration of stay, worked out from the concentration-time curve.

T1 sequence (P27361 whole entry): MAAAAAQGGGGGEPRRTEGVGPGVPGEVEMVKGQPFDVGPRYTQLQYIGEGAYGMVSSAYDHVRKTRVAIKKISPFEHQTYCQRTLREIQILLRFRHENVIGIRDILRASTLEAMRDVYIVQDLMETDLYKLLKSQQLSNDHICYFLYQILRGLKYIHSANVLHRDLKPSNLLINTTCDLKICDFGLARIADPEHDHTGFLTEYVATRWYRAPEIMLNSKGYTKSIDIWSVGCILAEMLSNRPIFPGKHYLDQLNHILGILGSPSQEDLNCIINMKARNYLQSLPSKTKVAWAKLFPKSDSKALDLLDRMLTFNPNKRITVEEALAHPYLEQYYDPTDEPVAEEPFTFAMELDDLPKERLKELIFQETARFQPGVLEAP
T2 sequence (P28482 2-360 limits assumed): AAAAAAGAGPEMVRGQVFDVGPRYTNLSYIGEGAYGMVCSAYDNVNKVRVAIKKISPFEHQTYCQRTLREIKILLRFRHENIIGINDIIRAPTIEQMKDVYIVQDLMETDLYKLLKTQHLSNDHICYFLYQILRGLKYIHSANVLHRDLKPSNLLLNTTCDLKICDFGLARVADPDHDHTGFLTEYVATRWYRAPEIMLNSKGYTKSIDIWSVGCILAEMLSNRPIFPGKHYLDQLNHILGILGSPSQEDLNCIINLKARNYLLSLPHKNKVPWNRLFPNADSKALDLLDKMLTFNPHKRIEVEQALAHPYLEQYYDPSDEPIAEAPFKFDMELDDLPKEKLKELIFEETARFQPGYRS

In the case of `Cc1cccc([C@@H](CO)NC(=O)[C@@H](C)N2CCn3cc(-c4nc(NC5CCOCC5)ncc4Cl)cc3C2=O)c1` [Example 9-P2, (R)-2-(7-(5-Chloro-2-((tetrahydro-2H-pyran-4-yl)amino)pyrimidin-4-yl)-1-oxo-3,4-dihydropyrrolo[1,2-a]pyrazin-2(1H)-yl)-N-((S)-2-hydroxy-1-(m-tolyl)ethyl)propanamide], the concentration for half-maximal inhibition (IC50) is 17.7 nM in series [1], 9 nM in series [2] and 1.9 nM in series [3]. Also, the Vd/F in series [4] (read-out: Apparent distribution volume Vz/F) was 3.14 L/kg. In addition, the area under the curve (AUC) in series [4] (read-out: Area under curve AUC) was 1330 ng·h/mL. In series [4] (read-out: Clearance CLz/F), the CL/F is 25.1 mL/min/kg. In series [4] (read-out: Half-life T1/2 (converted)), the half-life is 1.44 h. In addition, in series [4] (read-out: Plasma concentration Cmax), the Cmax is 1410 ng/mL. For the same compound, the mean residence time MRT in series [4] (read-out: Residence time MRT) was found to be 0.838 h.

As for `COc1cc(F)cc([C@@H](CO)NC(=O)[C@@H](C)N2CCn3cc(-c4nc(Nc5ccnn5C)ncc4C)cc3C2=O)c1` [Example 12-P2, (R)-N-((S)-1-(3-Fluoro-5-methoxyphenyl)-2-hydroxyethyl)-2-(7-(5-methyl-2-((1-methyl-1H-pyrazol-5-yl)amino)pyrimidin-4-yl)-1-oxo-3,4-dihydropyrrolo[1,2-a]pyrazin-2(1H)-yl)propanamide], the figures for the IC50 in series [1], in series [2] and in series [3] were 82 nM, 9.4 nM and 0.9 nM, respectively.

On to `COc1cc(F)cc([C@@H](CO)NC(=O)[C@@H](C)N2CCn3cc(-c4nc(NC5CCOCC5)ncc4Cl)nc3C2=O)c1` [Example 3-P2, (R)-2-(2-(5-Chloro-2-((tetrahydro-2H-pyran-4-yl)amino)pyrimidin-4-yl)-8-oxo-5,6-dihydroimidazo[1,2-a]pyrazin-7(8H)-yl)-N-((S)-1-(3-fluoro-5-methoxyphenyl)-2-hydroxyethyl)propanamide], for which the half-maximal inhibitory concentration (IC50) turned out to be 4.6 nM in series [2] and 1.75 nM in series [3].

As to `C[C@H](C(=O)N[C@H](CO)c1cccc(Cl)c1)N1CCn2cc(-c3nc(NC4CCOCC4)ncc3Cl)cc2C1=O` [Example 13-P2, (R)-2-(7-(5-Chloro-2-((tetrahydro-2H-pyran-4-yl)amino)pyrimidin-4-yl)-1-oxo-3,4-dihydropyrrolo[1,2-a]pyrazin-2(1H)-yl)-N—((S)-1-(3-chlorophenyl)-2-hydroxyethyl)propanamide], the figures for the IC50 in series [1] and in series [3] were 31 nM and 2.8 nM, respectively.

`COc1cc(F)cc([C@@H](CO)NC(=O)[C@@H](C)N2CCn3cc(-c4nc(NC5CCOCC5)ncc4C)cc3C2=O)c1` [Example 17-P2, (R)-N-((S)-1-(3-Fluoro-5-methoxyphenyl)-2-hydroxyethyl)-2-(7-(5-methyl-2-((tetrahydro-2H-pyran-4-yl)amino)pyrimidin-4-yl)-1-oxo-3,4-dihydropyrrolo[1,2-a]pyrazin-2(1H)-yl)propanamide]: the results for the IC50 in series [1], in series [2] and in series [3] were 38 nM, 22 nM and 3.1 nM, respectively.

Take `Cc1cccc([C@@H](CO)NC(=O)[C@@H](C)N2CCn3cc(-c4ccnc(NC5CCOCC5)n4)cc3C2=O)c1` [Example 19-P2, (R)-N-((S)-2-Hydroxy-1-(m-tolyl)ethyl)-2-(1-oxo-7-(2-((tetrahydro-2H-pyran-4-yl)amino)pyrimidin-4-yl)-3,4-dihydropyrrolo[1,2-a]pyrazin-2(1H)-yl)propanamide]: the IC50 in series [1] amounted to 67 nM; in series [3], 6.7 nM.

Take `C[C@H](C(=O)N[C@H](CO)c1cccc(Cl)c1)N1CCc2cc(-c3nc(NC4CCOCC4)ncc3Cl)cn2C1=O` [Example 16-P2, (R)-2-(6-(5-Chloro-2-((tetrahydro-2H-pyran-4-yl)amino)pyrimidin-4-yl)-1-oxo-3,4-dihydropyrrolo[1,2-c]pyrimidin-2(1H)-yl)-N-((S)-1-(3-chlorophenyl)-2-hydroxyethyl)propanamide]: the half-maximal inhibitory concentration (IC50) in series [1] is 54 nM; in series [3], 4.2 nM.

With `Cc1cccc([C@@H](CO)NC(=O)[C@@H](C)N2CCn3cc(-c4nc(Nc5ccnn5C)ncc4C)cc3C2=O)c1` [Example 10-P2, (R)-N-((S)-2-Hydroxy-1-(m-tolyl)ethyl)-2-(7-(5-methyl-2-((1-methyl-1H-pyrazol-5-yl)amino)pyrimidin-4-yl)-1-oxo-3,4-dihydropyrrolo[1,2-a]pyrazin-2(1H)-yl)propanamide], the IC50 worked out at 100 nM in series [1], 8.5 nM in series [2] and 1.1 nM in series [3].
